Earlier results, collected in patent US10927398B2, “Compositions for CYP450 phenotyping using saliva samples” (Concordia University, Inc., priority 2015, dated 2021).
Like-named read-outs stand apart in the source and are kept apart here.

Legend:
[1] = cited from earlier work
plasma protein = conditions: Table of Exemplary Drugs, cited from earlier work
[2] = Table of Exemplary Drugs, cited from earlier work
[3] = Table of Exemplary Drugs, CYP2C9
[4] = Table of Exemplary Drugs, CYP2C19
[5] = Table of Exemplary Drugs, CYP2D6
[6] = Table of Exemplary Drugs, CYP1A2
[7] = Table of Exemplary Drugs, CYP3A4

## CC[C@@H](c1cccc(O)c1)[C@@H](C)CN(C)C [Tapentadol]
[1]; [3]
  HALF-LIFE: 4 to 5 h
[1]; [4]
  HALF-LIFE: 4 to 5 h
[1]; [5]
  HALF-LIFE: 4 to 5 h
Plasma protein; CYP2C9
  PLASMA PROTEIN BINDING: 20%
Plasma protein; CYP2C19
  PLASMA PROTEIN BINDING: 20%
Plasma protein; CYP2D6
  PLASMA PROTEIN BINDING: 20%
[2]; CYP2C9
  ORAL BIOAVAILABILITY: 32%
[2]; CYP2C19
  ORAL BIOAVAILABILITY: 32%
[2]; CYP2D6
  ORAL BIOAVAILABILITY: 32%

## CC(C)[C@H]1CC[C@H](C(=O)N[C@H](Cc2ccccc2)C(=O)O)CC1 [Nateglinide]
[1]; [3]
  HALF-LIFE: 1.5 h
Plasma protein; CYP2C9
  PLASMA PROTEIN BINDING: 98%
[2]; CYP2C9
  ORAL BIOAVAILABILITY: 73%

## C[C@]12CC[C@@H]3c4ccc(O)cc4CC[C@H]3[C@@H]1CC[C@@H]2O [Estradiol]
[1]; [6]
  HALF-LIFE: 36 h
Plasma protein; CYP1A2
  PLASMA PROTEIN BINDING: >95%
[2]; CYP1A2
  ORAL BIOAVAILABILITY: 43%

## C=C1C[C@@H]2[C@H](CC[C@]3(C)C(=O)CC[C@@H]23)[C@@]2(C)C=CC(=O)C=C12 [Exemestane (Aromasin), Exemestane]
[1]; [7]
  HALF-LIFE: 24 h
Plasma protein; CYP3A4
  PLASMA PROTEIN BINDING: 90%
[2]; CYP3A4
  ORAL BIOAVAILABILITY: 42%

## CC(CN1c2ccccc2Sc2ccccc21)N(C)C (centres unmarked) [Promethazine]
[1]; [5]
  HALF-LIFE: 16 to 19 h
Plasma protein; CYP2D6
  PLASMA PROTEIN BINDING: 93%
[2]; CYP2D6
  ORAL BIOAVAILABILITY: 88%

## CCCc1nc(C)c2c(=O)[nH]c(-c3cc(S(=O)(=O)N4CCN(CC)CC4)ccc3OCC)nn12 [Vardenafil (Levitra), Vardenafil]
[1]; [7]
  HALF-LIFE: 4 to 5 h
Plasma protein; CYP3A4
  PLASMA PROTEIN BINDING: 95%
[2]; CYP3A4
  ORAL BIOAVAILABILITY: 15-44%

## O=C1Nc2ccc(Cl)cc2[C@@](C#CC2CC2)(C(F)(F)F)O1 [Efavir enz (Sustiva), Efavir enz]
[1]; [7]
  HALF-LIFE: 40 to 55 h
Plasma protein; CYP3A4
  PLASMA PROTEIN BINDING: 99.5-99.75% ^
[2]; CYP3A4
  ORAL BIOAVAILABILITY: 40-45%

## CCC1(c2ccccc2)C(=O)NCNC1=O [Primidone]
[1]; [4]
  HALF-LIFE: 3.3 to 7 h
Plasma protein; CYP2C19
  PLASMA PROTEIN BINDING: 20-30% ^
[2]; CYP2C19
  ORAL BIOAVAILABILITY: 90-100%

## CC(=O)Nc1ccc(O)cc1 [Paracetamol]
[1]; [6]
  HALF-LIFE: 1 to 4 h
Plasma protein; CYP1A2
  PLASMA PROTEIN BINDING: 10-25% ^
[2]; CYP1A2
  ORAL BIOAVAILABILITY: 85-98%

## CO[C@H]1C[C@@H]2CC[C@@H](C)[C@@](O)(O2)C(=O)C(=O)N2CCCC[C@H]2C(=O)O[C@H]([C@H](C)C[C@@H]2CC[C@@H](O)[C@H](OC)C2)CC(=O)[C@H](C)/C=C(\C)[C@@H](O)[C@@H](OC)C(=O)[C@H](C)C[C@H](C)/C=C/C=C/C=C/1C [Sirolimus (Rapamune), Sirolimus]
[1]; [7]
  HALF-LIFE: 61.3 to 72.3 h
Plasma protein; CYP3A4
  PLASMA PROTEIN BINDING: 92%
[2]; CYP3A4
  ORAL BIOAVAILABILITY: 14-27%

## CCCCCc1cc(O)c2c(c1)OC(C)(C)[C@@H]1CCC(C)=C[C@@H]21 [THC]
[1]; [3]
  HALF-LIFE: 1.6 to 59 h
Plasma protein; CYP2C9
  PLASMA PROTEIN BINDING: 97-99% ^
[2]; CYP2C9
  ORAL BIOAVAILABILITY: 10-35%

## CNCC[C@H](Oc1cccc2ccccc12)c1cccs1 [Duloxetine]
[1]; in vivo
  HALF-LIFE: 12 h
Plasma protein; CYP2D6
  PLASMA PROTEIN BINDING: >90%
[2]; CYP2D6
  ORAL BIOAVAILABILITY: 30-80%

## COc1ccccc1OCC(O)CN1CCN(CC(=O)Nc2c(C)cccc2C)CC1 (centres unmarked) [Ranulazine (Ranexa), Ranulazine]
[1]; [7]
  HALF-LIFE: 7 to 8.9 h
Plasma protein; CYP3A4
  PLASMA PROTEIN BINDING: 62%
[2]; CYP3A4
  ORAL BIOAVAILABILITY: 55%

## O=C1CCc2cc(OCCCCc3nnnn3C3CCCCC3)ccc2N1 [Cilostazol (Pletal), Cilostazol]
[1]; [7]
  HALF-LIFE: 11 to 13 h
Plasma protein; CYP3A4
  PLASMA PROTEIN BINDING: 95-98% ^
[2]; CYP3A4
  ORAL BIOAVAILABILITY: 87-100%

## C[C@@H](O[C@H]1OCCN(Cc2n[nH]c(=O)[nH]2)[C@H]1c1ccc(F)cc1)c1cc(C(F)(F)F)cc(C(F)(F)F)c1 [Aprepitant (Emend), Aprepitant]
[1]; [7]
  HALF-LIFE: 9 to 13 h
Plasma protein; CYP3A4
  PLASMA PROTEIN BINDING: 95%
[2]; CYP3A4
  ORAL BIOAVAILABILITY: 60-65%

## CC(=O)[C@H]1CC[C@H]2[C@@H]3CCC4=CC(=O)CC[C@]4(C)[C@H]3CC[C@]12C [Progesterone]
[1]; cell marked PV, Table of Exemplary Drugs, CYP2C19
  HALF-LIFE: PV: 5-20 min
Plasma protein; CYP2C19
  PLASMA PROTEIN BINDING: 95-99% ^
[2]; CYP2C19
  ORAL BIOAVAILABILITY: 10-15%

## COCCc1ccc(OCC(O)CNC(C)C)cc1 (centres unmarked) [Metoprolol]
[1]; [5]
  HALF-LIFE: 3 to 7 h
Plasma protein; CYP2D6
  PLASMA PROTEIN BINDING: 12%
[2]; CYP2D6
  ORAL BIOAVAILABILITY: 77%

## COc1cccc2c1C(=O)c1c(O)c3c(c(O)c1C2=O)C[C@@](O)(C(=O)CO)C[C@@H]3O[C@H]1C[C@H](N)[C@H](O)[C@H](C)O1 [Doxorubicin (Adriamycin), Doxorubicin]
[1]; [7]
  HALF-LIFE: 20 to 48 h
Plasma protein; CYP3A4
  PLASMA PROTEIN BINDING: 74-76% ^
[2]; CYP3A4
  ORAL BIOAVAILABILITY: 5%

## CCc1ccc(CCOc2ccc(CC3SC(=O)NC3=O)cc2)nc1 (centres unmarked) [Pioglitazone]
[1]; [7]
  HALF-LIFE: 3 to 7 h
Plasma protein; CYP3A4
  PLASMA PROTEIN BINDING: >99%
[2]; CYP3A4
  ORAL BIOAVAILABILITY: 50%

## Cc1ccc(S(=O)(=O)NC(=O)NN2CC3CCCC3C2)cc1 (centres unmarked) [Gliclazide]
[1]; [4]
  HALF-LIFE: 8 to 12 h
Plasma protein; CYP2C19
  PLASMA PROTEIN BINDING: 85-99% ^
[2]; CYP2C19
  ORAL BIOAVAILABILITY: 80%

## OC(c1cc(C(F)(F)F)nc2c(C(F)(F)F)cccc12)C1CCCCN1 (centres unmarked) [Mefloquine (Lariam), Mefloquine]
[1]; [7]
  HALF-LIFE: 3 weeks
Plasma protein; CYP3A4
  PLASMA PROTEIN BINDING: 98%
[2]; CYP3A4
  ORAL BIOAVAILABILITY: 85%

## Cc1cccc(Nc2ccncc2S(=O)(=O)NC(=O)NC(C)C)c1 [Torasemide]
[1]; [3]
  HALF-LIFE: 2.2 to 3.8 h
Plasma protein; CYP2C9
  PLASMA PROTEIN BINDING: >99%
[2]; CYP2C9
  ORAL BIOAVAILABILITY: 80%

## Clc1ccc2c(c1)C(c1ccccc1)=NCc1nncn1-2 [Estazolam (ProSom), Estazolam]
[1]; [7]
  HALF-LIFE: 10 to 24 h
Plasma protein; CYP3A4
  PLASMA PROTEIN BINDING: 93%
[2]; CYP3A4
  ORAL BIOAVAILABILITY: 93%

## CCCN1CCCC[C@H]1C(=O)Nc1c(C)cccc1C [Ropivacaine]
[1]; [6]
  HALF-LIFE: 5 to 7 h
Plasma protein; CYP1A2
  PLASMA PROTEIN BINDING: 94%
[2]; cell marked IV, CYP1A2
  ORAL BIOAVAILABILITY: 87-98% - IV

## CC(=O)O[C@H]1C(=O)[C@@]2(C)[C@H]([C@H](OC(=O)c3ccccc3)[C@]3(O)C[C@H](OC(=O)[C@H](O)[C@@H](NC(=O)c4ccccc4)c4ccccc4)C(C)=C1C3(C)C)[C@]1(OC(C)=O)CO[C@@H]1C[C@@H]2O [Paclitaxel (Taxol), Paclitaxel]
[1]; [7]
  HALF-LIFE: 13.1 to 52.7 h
Plasma protein; CYP3A4
  PLASMA PROTEIN BINDING: 89-98% ^
[2]; CYP3A4
  ORAL BIOAVAILABILITY: 6.50%

## COC(=O)[C@H](c1ccccc1Cl)N1CCc2sccc2C1 [Clopidogrel]
[1]; [7]
  HALF-LIFE: 6 h
Plasma protein; CYP2C19
  PLASMA PROTEIN BINDING: 98%
Plasma protein; CYP3A4
  PLASMA PROTEIN BINDING: 94-98% ^
[2]; CYP2C19
  ORAL BIOAVAILABILITY: >50%
[2]; CYP3A4
  ORAL BIOAVAILABILITY: >50%
